{
  "source": "paper PMC8231113",
  "about": "“Protein Secondary Structure Affects Glycan Clustering in Native Mass Spectrometry” (Life, 2021)",
  "key": {"GII.4 Saga P dimer": {"molecular_target": "GII.4 Saga P dimer (Norovirus GII.4 (human norovirus), UniProt B5BTR7)", "assay": "Native MS, specific glycan binding to P dimer after reference protein correction", "set-up": "species or system human norovirus (hNoV)", "method": "(§1) Prior to MS analysis, purified P dimers were buffer exchanged to 150 mM ammonium acetate (Sigma-Aldrich, reagent grade ≥98%) at pH 7 via centrifugal filter units at 12,000× g at 4 °C (Vivaspin 500, MWCO 10000, Sartorius). Glycans for native MS analysis were mixed with 1 µM (per monomer) purified GII.4 Saga P dimer and 3 µM of the reference proteins at indicated concentrations. Native mass spectra were measured at room temperature in positive ion mode on a high mass modified LCT Premier mass spectrometer (Waters/Micromass, UK and MS Vision, the Netherlands) with a nano-ESI source. In house-made gold-coated electrospray capillaries were used for direct-sample infusion without any accessory chromatographic separation. The voltages and pressures were optimized for non-covalent protein complexes. The gas pressure used in the source hexapole was set between 6.5 and 6.8 × 10^−2 mbar argon optimized for minimal complex dissociation and the backing pressure of the source roughing pump was set between 7.0 and 8.5 mbar. Spectra were recorded with applied voltages for the capillary and cone of 1.20 kV and 240 V, respectively. Note that charge state distributions for P dimers were sometimes slightly shifted as was the degree of glycan clustering per charge state. These changes were highly variable and not quantifiable.\n(§2) For calibration of the raw data, a 25 mg/mL cesium iodide spectrum from the same day was used. MassLynx V4.1 (Waters, Manchester, UK) was used to assign peak series to protein species and to determine the mass after minimal smoothing. Furthermore, OriginPro 2016 SR2 (OriginLab, Northampton, MA, USA) was used for spectral deconvolution and curve fitting. Correction for nonspecific protein-ligand clustering was performed as described. Corrected peak areas were averaged and normalized to the free-protein signal. Data were based on at least three independent measurements. Python code Panda and Numpy package were used to calculate the specific binding of P dimers according to the glycan clustering ratio obtained from the selected reference protein candidates. Seaborn and matplotlib.pyplot package were imported into a python script to plot the results. The module of sklearn.linear model was applied for linear regression. The matplotlib and heatmap package were used to plot the heatmap.\nData from native ESI MS measurements were translated into dissociation constants (KD values). The detailed calculations were based on the equations listed below. A protein (P) and a glycan ligand (L) form a complex through non-covalent interactions leading to a reversible association described by (Equation (1)):(1) P+L⇌PL when equilibrium is reached, the KD can be calculated directly from the concentrations via the law of mass action (Equation (2)):(2) KD=[Pfree][Lfree]/[PL]\n(§3) Theoretically, the KD is calculated by measuring the concentration of the three components (Pfree, Lfree, PL) in solution. Usually, these values are only indirectly accessible because they require ligand titration up to binding saturation. However, native MS allows for the directly measurement of Pfree and PL, from which Lfree can be calculated using the input concentrations. In the present work, the non-covalent interaction was measured in the gas phase assuming identical ESI and detection efficiency for free and glycan-associated proteins, both for the analyte and the reference protein. […] For P dimers, the equations reflect glycan binding to the individual monomers assuming that binding sites on each monomer are equal and independent.\nUsing R described in Equation (3), the KD calculation can be re-written into Equation (4) with the known initial concentration of glycan ligand [L0] and protein [P0], adapted from Sun et al.:(3) R=PLequil∕Pequil=∑nA(PL^n+)∕n∕∑nA(P^n+)∕n (4) KD =L0−RP0/1+R/R […]"}, "[1]": {"molecular_target": "T1, human apo-transferrin (apo-TFF) (Homo sapiens, UniProt P02787)", "T1 construct": "purchased Sigma-Aldrich (Merck, Germany)", "T1 sequence (P02787 20-698)": "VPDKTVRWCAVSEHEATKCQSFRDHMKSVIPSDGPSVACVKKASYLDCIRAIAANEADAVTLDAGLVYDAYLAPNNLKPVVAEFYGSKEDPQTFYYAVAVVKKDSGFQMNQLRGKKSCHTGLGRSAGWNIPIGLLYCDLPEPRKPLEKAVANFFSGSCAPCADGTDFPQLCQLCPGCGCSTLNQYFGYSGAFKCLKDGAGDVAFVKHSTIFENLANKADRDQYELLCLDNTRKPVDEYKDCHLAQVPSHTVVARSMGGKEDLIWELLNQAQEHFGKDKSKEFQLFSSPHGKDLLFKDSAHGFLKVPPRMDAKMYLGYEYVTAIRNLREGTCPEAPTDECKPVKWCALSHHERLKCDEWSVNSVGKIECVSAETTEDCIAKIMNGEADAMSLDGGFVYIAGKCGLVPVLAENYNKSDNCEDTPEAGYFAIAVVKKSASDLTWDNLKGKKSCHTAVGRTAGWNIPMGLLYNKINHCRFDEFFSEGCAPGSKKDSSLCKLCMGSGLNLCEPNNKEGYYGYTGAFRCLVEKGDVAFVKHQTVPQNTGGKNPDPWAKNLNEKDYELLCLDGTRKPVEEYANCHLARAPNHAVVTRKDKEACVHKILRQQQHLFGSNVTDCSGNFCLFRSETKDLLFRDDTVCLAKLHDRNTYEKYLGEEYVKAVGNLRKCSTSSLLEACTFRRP", "assay": "Native MS glycan clustering to reference protein apo-TFF", "format": "binding", "conditions": "on apo-TFF", "method": "as §1, §2, §3\nUsing R described in Equation (3), the KD calculation can be re-written into Equation (4) with the known initial concentration of glycan ligand [L0] and protein [P0], adapted from Sun et al.:(3) R=PLequil∕Pequil=∑nA(PL^n+)∕n∕∑nA(P^n+)∕n (4) KD =L0−RP0/1+R/R\nFor the carbohydrate-binding experiments, it was essential to keep the initial protein concentrations and pH value constant during the analysis of the protein-carbohydrate solutions. While acidification occurs in any ESI droplet, the remaining solution in the capillary changes pH over time. Therefore, accumulated spectra were obtained within 10 min after the voltages were applied to minimize the influence of pH changes during the measurements. […]"}},
  "data": [
    {"smiles": "CC(=O)N[C@H]1[C@@H](O[C@H]2[C@@H](O)[C@@H](CO)O[C@@H](O[C@H]3[C@H](O)[C@@H](CO)OC(O)[C@@H]3NC(C)=O)[C@@H]2O[C@@H]2O[C@@H](C)[C@@H](O)[C@@H](O)[C@@H]2O)O[C@H](CO)[C@H](O)[C@@H]1O", "note": "(stereo partly drawn) [HBGA A, GalNAcα1-3(Fucα-2)Galβ1-3GlcNAc]", "values": [
      {"measurement": "Bound number of carbohydrates on Saga P dimer", "setting": "GII.4 Saga P dimer; ref. protein ADH, glycan 100 µM", "result": 0},
      {"measurement": "Bound number of carbohydrates on Saga P dimer", "setting": "GII.4 Saga P dimer; ref. protein ADH, glycan 200 µM", "result": 0},
      {"measurement": "Bound number of carbohydrates on Saga P dimer", "setting": "GII.4 Saga P dimer; ref. protein ADH, glycan 300 µM", "result": 0},
      {"measurement": "Bound number of carbohydrates on Saga P dimer", "setting": "GII.4 Saga P dimer; ref. protein ADH, glycan 400 µM", "result": 0},
      {"measurement": "Bound number of carbohydrates on Saga P dimer", "setting": "GII.4 Saga P dimer; ref. protein ADH, glycan 500 µM", "result": 0},
      {"measurement": "Bound number of carbohydrates on Saga P dimer", "setting": "GII.4 Saga P dimer; ref. protein CA, glycan 100 µM", "result": 1},
      {"measurement": "Bound number of carbohydrates on Saga P dimer", "setting": "GII.4 Saga P dimer; ref. protein CA, glycan 200 µM", "result": 1},
      {"measurement": "Bound number of carbohydrates on Saga P dimer", "setting": "GII.4 Saga P dimer; ref. protein CA, glycan 300 µM", "result": 1},
      {"measurement": "Bound number of carbohydrates on Saga P dimer", "setting": "GII.4 Saga P dimer; ref. protein CA, glycan 400 µM", "result": 1},
      {"measurement": "Bound number of carbohydrates on Saga P dimer", "setting": "GII.4 Saga P dimer; ref. protein CA, glycan 500 µM", "result": 1},
      {"measurement": "Bound number of carbohydrates on Saga P dimer", "setting": "GII.4 Saga P dimer; ref. protein Cyto c, glycan 100 µM", "result": 2},
      {"measurement": "Bound number of carbohydrates on Saga P dimer", "setting": "GII.4 Saga P dimer; ref. protein Cyto c, glycan 200 µM", "result": 3},
      {"measurement": "Bound number of carbohydrates on Saga P dimer", "setting": "GII.4 Saga P dimer; ref. protein Cyto c, glycan 300 µM", "result": 3},
      {"measurement": "Bound number of carbohydrates on Saga P dimer", "setting": "GII.4 Saga P dimer; ref. protein Cyto c, glycan 400 µM", "result": 4},
      {"measurement": "Bound number of carbohydrates on Saga P dimer", "setting": "GII.4 Saga P dimer; ref. protein Cyto c, glycan 500 µM", "result": 4},
      {"measurement": "Bound number of carbohydrates on Saga P dimer", "setting": "GII.4 Saga P dimer; ref. protein GFP, glycan 100 µM", "result": 1},
      {"measurement": "Bound number of carbohydrates on Saga P dimer", "setting": "GII.4 Saga P dimer; ref. protein GFP, glycan 200 µM", "result": 1},
      {"measurement": "Bound number of carbohydrates on Saga P dimer", "setting": "GII.4 Saga P dimer; ref. protein GFP, glycan 300 µM", "result": 1},
      {"measurement": "Bound number of carbohydrates on Saga P dimer", "setting": "GII.4 Saga P dimer; ref. protein GFP, glycan 400 µM", "result": 1},
      {"measurement": "Bound number of carbohydrates on Saga P dimer", "setting": "GII.4 Saga P dimer; ref. protein GFP, glycan 500 µM", "result": 1},
      {"measurement": "Bound number of carbohydrates on Saga P dimer", "setting": "GII.4 Saga P dimer; ref. protein LDH, glycan 100 µM", "result": 0},
      {"measurement": "Bound number of carbohydrates on Saga P dimer", "setting": "GII.4 Saga P dimer; ref. protein LDH, glycan 200 µM", "result": 0},
      {"measurement": "Bound number of carbohydrates on Saga P dimer", "setting": "GII.4 Saga P dimer; ref. protein LDH, glycan 300 µM", "result": 0},
      {"measurement": "Bound number of carbohydrates on Saga P dimer", "setting": "GII.4 Saga P dimer; ref. protein LDH, glycan 400 µM", "result": 0},
      {"measurement": "Bound number of carbohydrates on Saga P dimer", "setting": "GII.4 Saga P dimer; ref. protein LDH, glycan 500 µM", "result": 1},
      {"measurement": "Bound number of carbohydrates on Saga P dimer", "setting": "GII.4 Saga P dimer; ref. protein Myo, glycan 100 µM", "result": 2},
      {"measurement": "Bound number of carbohydrates on Saga P dimer", "setting": "GII.4 Saga P dimer; ref. protein Myo, glycan 200 µM", "result": 3},
      {"measurement": "Bound number of carbohydrates on Saga P dimer", "setting": "GII.4 Saga P dimer; ref. protein Myo, glycan 300 µM", "result": 3},
      {"measurement": "Bound number of carbohydrates on Saga P dimer", "setting": "GII.4 Saga P dimer; ref. protein Myo, glycan 400 µM", "result": 3},
      {"measurement": "Bound number of carbohydrates on Saga P dimer", "setting": "GII.4 Saga P dimer; ref. protein Myo, glycan 500 µM", "result": 4},
      {"measurement": "Bound number of carbohydrates on Saga P dimer", "setting": "GII.4 Saga P dimer; ref. protein Ubq, glycan 100 µM", "result": 2},
      {"measurement": "Bound number of carbohydrates on Saga P dimer", "setting": "GII.4 Saga P dimer; ref. protein Ubq, glycan 200 µM", "result": 3},
      {"measurement": "Bound number of carbohydrates on Saga P dimer", "setting": "GII.4 Saga P dimer; ref. protein Ubq, glycan 300 µM", "result": 4},
      {"measurement": "Bound number of carbohydrates on Saga P dimer", "setting": "GII.4 Saga P dimer; ref. protein Ubq, glycan 400 µM", "result": 4},
      {"measurement": "Bound number of carbohydrates on Saga P dimer", "setting": "GII.4 Saga P dimer; ref. protein Ubq, glycan 500 µM", "result": 4},
      {"measurement": "Bound number of carbohydrates on Saga P dimer", "setting": "GII.4 Saga P dimer; ref. protein apo-TFF, glycan 100 µM", "result": 0},
      {"measurement": "Bound number of carbohydrates on Saga P dimer", "setting": "GII.4 Saga P dimer; ref. protein apo-TFF, glycan 200 µM", "result": 0},
      {"measurement": "Bound number of carbohydrates on Saga P dimer", "setting": "GII.4 Saga P dimer; ref. protein apo-TFF, glycan 300 µM", "result": 1},
      {"measurement": "Bound number of carbohydrates on Saga P dimer", "setting": "GII.4 Saga P dimer; ref. protein apo-TFF, glycan 400 µM", "result": 1},
      {"measurement": "Bound number of carbohydrates on Saga P dimer", "setting": "GII.4 Saga P dimer; ref. protein apo-TFF, glycan 500 µM", "result": 1},
      {"measurement": "Glycan-Clustering Ratio R", "setting": "[1]; 100 µM glycan", "result": "0.39±0.02"},
      {"measurement": "Glycan-Clustering Ratio R", "setting": "[1]; 200 µM glycan", "result": "0.57±0.05"},
      {"measurement": "Glycan-Clustering Ratio R", "setting": "[1]; 300 µM glycan", "result": "0.65±0.02"},
      {"measurement": "Glycan-Clustering Ratio R", "setting": "[1]; 400 µM glycan", "result": "0.71±0.03"},
      {"measurement": "Glycan-Clustering Ratio R", "setting": "[1]; 500 µM glycan", "result": "0.79 ± 0.03"}
    ]}
  ]
}
